This is an account of results in patent publication US20100249132A1, “IMIDAZOLE DERIVATIVES” (MERCK PATENT GESELLSCHAFT MIT BESCHRANKTER HAFTUNG, priority 2007, published 2010).

Broadly, the IC50 is the concentration that gives 50% inhibition.

This test has as its target T1, recombinant autotaxin (Homo sapiens, UniProt Q13822).
T1 construct: made in house; host or cells: Hi5 insect cells (baculovirus)
Description: Autotaxin test (enzyme test), Amplex Red fluorescence. The class given is biochemical. To be noted: substrate LPC 75 μM, Amplex Red detection, read-out: IC50 (autotaxin inhibition, enzyme test). The procedure: Autotaxin Inhibition (Enzyme Test)
Autotaxin Test (Enzyme Test)
The autotaxin activity is measured indirectly using Amplex Red reagent. Amplex Red is measured here as fluorogenic indicator for the H2O2 formed. In detail, autotaxin converts the substrate lysophosphatidylcholine (LPC) into phosphocholine and lysophosphatidylic acid (LPA). After this reaction, the phosphocholine is reacted with alkaline phosphatase to give inorganic phosphate and choline. In the next step, choline is oxidised by choline oxidase to give betaine, with formation of H2O2. H2O2 reacts with Amplex Red reagent in the presence of peroxidase (horseradish peroxidase) in a 1:1 stoichiometry and forms the highly fluorescent resorufin. The fluorescence is measured in a reaction-dependent kinetic mode in order that fluorescent signals from possible other fluorescent substances which are not involved in the reaction can be corrected out.
1.5 μl of a standard solution or of the test substances (substances with the name A(n)) in individual concentrations dissolved in 20 mM Hepes pH 7.2 with a maximum of 7.7% of DMSO are pre-incubated together with 10 μl (16 ng) of highly purified recombinant autotaxin in a black microtitre plate provided with 384 wells at 22° C. for 30 min. The reaction is then initiated by addition of 5 μl of L-α-lysophosphatidylcholine (LPC), where the final concentration of LPC is 75 μM. The mixture is incubated at 37° C. for 90 min. After the incubation, Amplex Red reagent, peroxidase (horseradish peroxidase) and choline oxidase is added, and the fluorescence is immediately measured at 612 nm with excitation of 485 nm in a “Tecan Ultra multimode” reader. The activity of autotaxin is calculated indirectly via detection of the H2O2 formed. • Material: • Microtitre plate: PS microplate, 384 wells, small volume, black Corning, Cat #3677 • Protein: recombinant autotaxin (Baculovirale Hi5 Expression) • Substrate: L-α-lysophosphatidylcholine (chicken egg)); Avanti Polar Lipids #830071 P • Standard: C14 LPA, Avanti Polar Lipids, Cat #857120P • Detection reagent: Amplex Red reagent; Invitrogen #A12222; dissolved in 1.923 ml of DMSO peroxidase type VI-A (horseradish) from Sigma #P6782; dissolved in 7.45 ml of test buffer, choline oxidase; Sigma #C5896; dissolved in 2.47 ml of test buffer • Detection reagent mix: 1:100 dilution of Amplex Red reagent in test buffer • Test buffer: 200 mM Tris HCl, Merck, Cat #1.08219, pH 7.9, 0.1% of BSA, lipid-free, Roche Cat #775835
Regarding “5-[3-(4-Butylphenyl)ureido]-2-(5-cyclopropyl-carbamoylfuran-2-ylmethyl)-1H-imidazole-4-carboxamide [Compound A89]”, the IC50 is > 10 µM.

Take `CC(C)c1ccc(NC(=O)Nc2[nH]c(Cc3ccc(OCC(=O)O)cc3)nc2C(N)=O)cc1` [Compound A1, (4-{4-carbamoyl-5-[3-(4-isopropylphenyl)ureido]-1H-imidazol-2-ylmethyl}phenoxy)acetic acid]: the IC50 was in the range of 1 to 10 µM.

For the compound `CC(C)c1ccc(NC(=O)Nc2[nH]c(Cc3ccc(C(=O)O)cc3)nc2C(N)=O)cc1` [Compound A2, 4-{4-Carbamoyl-5-[3-(4-isopropylphenyl)ureido]-1H-imidazol-2-ylmethyl}benzoic acid], the IC50 fell in the range of 1 to 10 µM.

Consider `CCCCc1ccc(NC(=O)Nc2[nH]c(Cc3ccc(C(=O)O)cc3)nc2C(N)=O)cc1` [Compound A3, 4-{5-[3-(4-Butylphenyl)ureido]-4-carbamoyl-1H-imidazol-2-ylmethyl}benzoic acid], for which the IC50 is > 10 µM.

For `CCCCCCNC(=O)Nc1[nH]c(Cc2ccc(C(=O)O)cc2)nc1C(N)=O` [Compound A4, 4-[4-Carbamoyl-5-(3-hexylureido)-1H-imidazol-2-ylmethyl]benzoic acid], the IC50 was > 10 µM.

Take `Cc1ccc(NC(=O)Nc2[nH]c(Cc3ccc(C(=O)O)cc3)nc2C(N)=O)cc1` [Compound A5, 4-[4-Carbamoyl-5-(3-p-tolylureido)-1H-imidazol 2-ylmethyl]benzoic acid]: the IC50 was > 10 µM.

`NC(=O)c1nc(Cc2ccc(C(=O)O)cc2)[nH]c1NC(=O)Nc1ccc(Cl)cc1` [Compound A6, 4-{4-Carbamoyl-5-[3-(4-chlorophenyl)ureido]-1H imidazol-2-ylmethyl}benzoic acid]: the IC50 was in the range of 1 to 10 µM.

On to `CCc1ccc(NC(=O)Nc2[nH]c(Cc3ccc(C(=O)O)cc3)nc2C(N)=O)cc1` [Compound A7, 4-{4-Carbamoyl-5-[3-(4-ethylphenyl)ureido]-1H imidazol-2-ylmethyl}benzoic acid], for which the IC50 fell in the range of 1 to 10 µM.

For `Cc1c(Cl)cccc1NC(=O)Nc1[nH]c(Cc2ccc(C(=O)O)cc2)nc1C(N)=O` [Compound A8, 4-{4-Carbamoyl-5-[3-(3-chloro-2-methylphenyl)-ureido]-1H-imidazol-2-ylmethyl}benzoic acid], the IC50 lay within 1 to 10 µM.

For `CCCCOc1ccc(NC(=O)Nc2[nH]c(Cc3ccc(C(=O)O)cc3)nc2C(N)=O)cc1` [Compound A9, 4-{5-[3-(4-Butoxyphenyl)ureido]-4-carbamoyl-1H-imidazol-2-ylmethyl}benzoic acid], the IC50 was in the range of 1 to 10 µM.

Take `NC(=O)c1nc(Cc2ccc(C(=O)O)o2)[nH]c1NC(=O)Nc1ccc(C(F)(F)F)cc1` [Compound A10, 5-{4-Carbamoyl-5-[3-(4-trifluoromethylphenyl)-ureido]-1H-imidazol-2-ylmethyl}furan-2-carboxylic acid]: the IC50 is 1 to 10 µM.

As to `CCc1ccc(NC(=O)Nc2[nH]c(Cc3ccc(C(=O)O)o3)nc2C(N)=O)cc1` [Compound A11, 5-{4-Carbamoyl-5-[3-(4-ethylphenyl)ureido]-1H-imidazol-2-ylmethyl}furan-2-carboxylic acid], the IC50 lay in the range of 1 to 10 µM.

As for `CC(C)c1ccc(NC(=O)Nc2[nH]c(Cc3ccc(C(=O)O)o3)nc2C(N)=O)cc1` [Compound A12, 5-{4-Carbamoyl-5-[3-(4-isopropylphenyl)ureido]-1H-imidazol-2-ylmethyl}furan-2-carboxylic acid], the IC50 fell in the range of 1 to 10 µM.

Consider `Cc1c(Cl)cccc1NC(=O)Nc1[nH]c(Cc2ccc(C(=O)O)o2)nc1C(N)=O` [Compound A13, 5-{4-Carbamoyl-5-[3-(3-chloro-2-methylphenyl)-ureido]-1H-imidazol-2-ylmethyl}furan-2-carboxylic acid], for which the IC50 was > 10 µM.

`Cc1ccc(NC(=O)Nc2[nH]c(Cc3ccc(C(=O)O)o3)nc2C(N)=O)c(C)c1` [Compound A14, 5-{4-Carbamoyl-5-[3-(2,4-dimethylphenyl)-ureido]-1H-imidazol-2-ylmethyl}furan-2-carboxylic acid]: the IC50 was > 10 µM.

As for `NC(=O)c1nc(Cc2ccc(C(=O)O)cc2)[nH]c1NC(=O)Nc1ccc(C(F)(F)F)cc1` [Compound A15, 4-{4-Carbamoyl-5-[3-(4-tritluoromethylphenyl)-ureido]-1H-imidazol-2-ylmethyl}benzoic acid], the IC50 lay in the range of 1 to 10 µM.

In the case of `Cc1cccc(C)c1NC(=O)Nc1[nH]c(Cc2ccc(C(=O)O)cc2)nc1C(N)=O` [Compound A16, 4-{4-Carbamoyl-5-[3-(2,6-dimethylphenyl)-ureido]-1H-imidazol-2-ylmethyl}benzoic acid], the IC50 is > 10 µM.

As to `NC(=O)c1nc(Cc2ccc(C(=O)O)cc2)[nH]c1NC(=O)Nc1cc(C(F)(F)F)ccc1F` [Compound A17, 4-{4-Carbamoyl-5-[3-(2-tluoro-5-trifluoromethyl-phenyl)ureido]-1H-imidazol-2-ylmethyl}benzoic acid], the IC50 was > 10 µM.

In the case of `NC(=O)c1nc(-c2ccc(C(=O)O)cc2)[nH]c1NC(=O)Nc1ccc(C(F)(F)F)cc1` [Compound A18, 4-{4-Carbamoyl-5-[3-(4-trifluoromethylphenyl)-ureido]-1H-imidazol-2-yl}benzoic acid], the IC50 is > 10 µM.

As for `CCc1ccc(NC(=O)Nc2[nH]c(-c3ccc(C(=O)O)cc3)nc2C(N)=O)cc1` [Compound A19, 4-{4-Carbamoyl-5-[3-(4-ethylphenyl)ureido]-1H-imidazol-2-yl}benzoic acid], the IC50 was > 10 µM.

Consider `NC(=O)c1nc(-c2ccc(CC(=O)O)cc2)[nH]c1NC(=O)Nc1ccc(C(F)(F)F)cc1` [Compound A20, (4-{4-Carbamoyl-5-[3-(4-trifluoromethylphenyl)-ureido]-1H-imidazol-2-yl}phenyl)acetic acid], for which the IC50 was > 10 µM.

For `NC(=O)c1nc(-c2ccc(CC(=O)O)cc2)[nH]c1NC(=O)Nc1cccc(Cl)c1` [Compound A21, (4-{4-Carbamoyl-5-[3-(3-chlorophenyl)ureido]-1H-imidazol-2-yl}phenyl)acetic acid], the IC50 is > 10 µM.

On to `NC(=O)c1nc(-c2ccc(CC(=O)O)cc2)[nH]c1NC(=O)Nc1ccc(Cl)cc1` [Compound A22, (4-{4-Carbamoyl-5-[3-(4-chlorophenyl)ureido]-1H-imidazol-2-yl}phenyl)acetic acid], for which the IC50 is > 10 µM.

For `CC(C)c1ccc(NC(=O)Nc2[nH]c(-c3ccc(CC(=O)O)cc3)nc2C(N)=O)cc1` [Compound A23, (4-{4-Carbamoyl-5-[3-(4-isopropylphenyl)ureido]-1H-imidazol-2-yl}phenyl)acetic acid], the IC50 is > 10 µM.

Consider `Cc1ccc(NC(=O)Nc2[nH]c(-c3ccc(CC(=O)O)cc3)nc2C(N)=O)c(C)c1` [Compound A24, (4-{4-Carbamoyl-5-[3-(2,4-dimethylphenyl)-ureido]-1H-imidazol-2-yl}phenyl)acetic acid], for which the IC50 was > 10 µM.

Regarding `Cc1cc(C)cc(NC(=O)Nc2[nH]c(-c3ccc(CC(=O)O)cc3)nc2C(N)=O)c1` [Compound A25, (4-{4-Carbamoyl-5-[3-(3,5-dimethylphenyl)-ureido]-1H-imidazol-2-yl}phenyl)acetic acid], the IC50 was > 10 µM.

Take `Cc1cccc(C)c1NC(=O)Nc1[nH]c(Cc2ccc(C(=O)O)o2)nc1C(N)=O` [Compound A26, 5-{4-Carbamoyl-5-[3-(2,6-dimethylphenyl)-ureido]-1H-imidazol-2-ylmethyl}furan-2-carboxylic acid]: the IC50 is > 10 µM.

For the compound `NC(=O)c1nc(Cc2ccc(C(=O)O)o2)[nH]c1NC(=O)NCCc1ccccc1` [Compound A27, 5-[4-Carbamoyl-5-(3-phenethylureido)-1H-imidazol-2-ylmethyl]furan-2-carboxylic acid], the IC50 is 1 to 10 µM.

On to `CCc1cccc(CC)c1NC(=O)Nc1[nH]c(Cc2ccc(C(=O)O)o2)nc1C(N)=O` [Compound A28, 5-{4-Carbamoyl-5-[3-(2,6-diethylphenyl)ureido]-1H-imidazol-2-ylmethyl}furan-2-carboxylic acid], for which the IC50 was > 10 µM.

As for `NC(=O)c1nc(Cc2ccc(C(=O)O)o2)[nH]c1NC(=O)Nc1ccc(Cl)c(C(F)(F)F)c1` [Compound A29, 5-{4-Carbamoyl-5-[3-(4-chloro-3-trifluoromethyl-phenyl)ureido]-1H-imidazol-2-ylmethyl}furan-2-carboxylic acid], the IC50 is > 10 µM.

For the compound `NC(=O)c1nc(Cc2ccc(C(=O)O)o2)[nH]c1NC(=O)Nc1ccc(Cl)cc1` [Compound A30, 5-{4-Carbamoyl-5-[3-(4-chlorophenyl)ureido]-1H-imidazol-2-ylmethyl}furan-2-carboxylic acid], the IC50 was 1 to 10 µM.
